From PMC10504751, “Chalcone/1,3,4-Oxadiazole/Benzimidazole hybrids as novel anti-proliferative agents inducing apoptosis and inhibiting EGFR & BRAFV^600E” (BMC Chemistry, 2023)
Like-named read-outs stand apart in the source and are kept apart here.

Legend:
Assay in all cases: NCI one-dose SRB anti-proliferative screen
Assay type in all cases: cell-based
Conditions in all cases: Homo sapiens, read-out: Cell growth inhibition %
[1] = system: NCI/ADR-RES
In short: (§1)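 SRB-based colorimetric growth readout; compounds dosed once at 10 µM.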

[2] = system: A549/ATCC
In short: as §1

[3] = system: COLO 205
In short: as §1

[4] = system: HOP-92
In short: as §1

[5] = system: A498
In short: as §1

[6] = system: HCC-2998
In short: as §1

[7] = system: SK-MEL-5
In short: as §1

[8] = system: SK-MEL-28
In short: as §1

[9] = system: SNB-75
In short: as §1

[10] = system: MDA-MB-231/ATCC
In short: as §1

[11] = system: MDA-MB-435
In short: as §1

[12] = system: TK-10
In short: as §1

[13] = system: NCI-H322M
In short: as §1

[14] = system: SNB-19
In short: as §1

[15] = system: NCI-H522
In short: as §1

[16] = system: SF-539
In short: as §1

[17] = system: SF-268
In short: as §1

[18] = system: HL-60(TB)
In short: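 Activity reflects a single-point exposure at 10 µM, with cell mass determined by a sulforhodamine B dye assay.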

[19] = system: MALME-3M
In short: as §1

[20] = system: M14
In short: as §1

[21] = NCI/ADR-RES, Ovarian Cancer, NCI one dose
[22] = A549/ATCC, Non-Small Cell Lung Cancer, NCI one dose
[23] = COLO 205, Colon cancer, NCI one dose
[24] = HOP-92, Non-Small Cell Lung Cancer, NCI one dose
[25] = A498, Renal cancer, NCI one dose
[26] = HCC-2998, Colon cancer, NCI one dose
[27] = SK-MEL-5, Melanoma, NCI one dose
[28] = SK-MEL-28, Melanoma, NCI one dose
[29] = SNB-75, CNS Cancer, NCI one dose
[30] = MDA-MB-231/ATCC, Breast cancer, NCI one dose
[31] = MDA-MB-435, Melanoma, NCI one dose
[32] = TK-10, Renal cancer, NCI one dose
[33] = NCI-H322M, Non-Small Cell Lung Cancer, NCI one dose
[34] = SNB-19, CNS Cancer, NCI one dose
[35] = NCI-H522, Non-Small Cell Lung Cancer, NCI one dose
[36] = SF-539, CNS Cancer, NCI one dose
[37] = SF-268, CNS Cancer, NCI one dose
[38] = HL-60(TB), Leukemia, NCI one dose
[39] = MALME-3M, Melanoma, NCI one dose

| SMILES | inhibition at 10 µM [1, 21] [%] | inhibition at 10 µM [2, 22] [%] | inhibition at 10 µM [3, 23] [%] | inhibition at 10 µM [4, 24] [%] | inhibition at 10 µM [5, 25] [%] | inhibition at 10 µM [6, 26] [%] | inhibition at 10 µM [7, 27] [%] | inhibition at 10 µM [8, 28] [%] | inhibition at 10 µM [9, 29] [%] | inhibition at 10 µM [10, 30] [%] | inhibition at 10 µM [11, 31] [%] | inhibition at 10 µM [12, 32] [%] | inhibition at 10 µM [13, 33] [%] | inhibition at 10 µM [14, 34] [%] | inhibition at 10 µM [15, 35] [%] | inhibition at 10 µM [16, 36] [%] | inhibition at 10 µM [17, 37] [%] | inhibition at 10 µM [18, 38] [%] | inhibition at 10 µM [19, 39] [%] | other results |
| --- | --- | --- | --- | --- | --- | --- | --- | --- | --- | --- | --- | --- | --- | --- | --- | --- | --- | --- | --- | --- |
| O=C(CSc1nnc(-c2ccc3[nH]c(-c4ccccc4)nc3c2)o1)Nc1ccc(C(=O)/C=C/c2ccccc2)cc1 [Compound 7a, 2-{5-[2-Phenyl-1 H-benzo[d]imidazol-5-yl]-1,3,4-oxadiazol-2-ylthio}-N-{4-[(E)-3-phenylacryloyl]phenyl}acetamide] | 0 | 0 | 0 | 0 | 4.13 | 0 | 1.68 | 0 | 0 | 0 | 0 | 0 | 0 | 0.06 | 6.57 | 3.15 | 0 | 0 | 5.5 | – |
| O=C(CSc1nnc(-c2ccc3[nH]c(-c4ccccc4)nc3c2)o1)Nc1ccc(C(=O)/C=C/c2ccc(Cl)cc2)cc1 [Compound 7b, 2-{5-[2-Phenyl-1 H-benzo[d]imidazol-5-yl]-1,3,4-oxadiazol-2-ylthio}-N-{4-[(E)-3-(4-chlorophenyl)acryloyl]phenyl}acetamide] | 0 | 0 | 0 | 0 | 6.84 | 0 | 3.35 | 0 | 0 | 4.03 | 0 | 0 | 0 | 3.92 | 11.6 | 4.06 | 0 | 0 | 0 | – |
| COc1ccc(/C=C/C(=O)c2ccc(NC(=O)CSc3nnc(-c4ccc5[nH]c(-c6ccccc6)nc5c4)o3)cc2)cc1 [Compound 7c, 2-{5-[2-Phenyl-1 H-benzo[d]imidazol-5-yl]-1,3,4-oxadiazol-2-ylthio}-N-{4-[(E)-3-(4-methoxyphenyl)acryloyl]phenyl}acetamide] | 0 | 0 | 0 | 0 | 22.6 | 0 | 16.8 | 0 | 0 | 0 | 0 | 0 | 0 | 7.28 | 8.81 | 8.76 | 0 | 5.24 | 8.64 | – |
| COc1ccc(/C=C/C(=O)c2ccc(NC(=O)CSc3nnc(-c4ccc5[nH]c(-c6ccccc6)nc5c4)o3)cc2)cc1OC [Compound 7d, 2-{5-[2-Phenyl-1 H-benzo[d]imidazol-5-yl]-1,3,4-oxadiazol-2-ylthio}-N-{4-[(E)-3-(3,4-dimethoxyphenyl)acryloyl]phenyl}acetamide] | 0 | 0 | 0 | 0 | 14.3 | 0 | 0 | 0 | 0 | 0 | 0 | 0 | 0 | 3.18 | 3.75 | 0.34 | 0 | 0 | 2.37 | – |
| O=C(CSc1nnc(-c2ccc3[nH]c(-c4ccc(Cl)cc4)nc3c2)o1)Nc1ccc(C(=O)/C=C/c2ccccc2)cc1 [Compound 7f, 2-{5-[2-(4-Chlorophenyl)-1 H-benzo[d]imidazol-5-yl]-1,3,4-oxadiazol-2-ylthio}-N-{4-[(E)-3-phenylacryloyl]phenyl}acetamide] | – | – | – | – | – | – | – | – | – | – | – | – | – | – | – | – | – | – | – | inhibition at 10 µM ([20]; M14 (Melanoma), NCI one dose 10 µM): 0%; inhibition at 10 µM ([1]; NCI/ADR-RES (Ovarian Cancer), NCI one dose 10 µM): 0%; inhibition at 10 µM ([2]; A549/ATCC (Non-Small Cell Lung Cancer), NCI one dose 10 µM): 0%; inhibition at 10 µM ([3]; COLO 205 (Colon Cancer), NCI one dose 10 µM): 0%; inhibition at 10 µM ([4]; HOP-92 (Non-Small Cell Lung Cancer), NCI one dose 10 µM): 0%; inhibition at 10 µM ([5]; A498 (Renal Cancer), NCI one dose 10 µM): 0%; inhibition at 10 µM ([6]; HCC-2998 (Colon Cancer), NCI one dose 10 µM): 0%; inhibition at 10 µM ([7]; SK-MEL-5 (Melanoma), NCI one dose 10 µM): 0.99%; inhibition at 10 µM ([8]; SK-MEL-28 (Melanoma), NCI one dose 10 µM): 0%; inhibition at 10 µM ([9]; SNB-75 (CNS Cancer), NCI one dose 10 µM): 1.75%; inhibition at 10 µM ([10]; MDA-MB-231/ATCC (Breast Cancer), NCI one dose 10 µM): 2.18%; inhibition at 10 µM ([11]; MDA-MB-435 (Melanoma), NCI one dose 10 µM): 0%; inhibition at 10 µM ([12]; TK-10 (Renal Cancer), NCI one dose 10 µM): 0%; inhibition at 10 µM ([13]; NCI-H322M (Non-Small Cell Lung Cancer), NCI one dose 10 µM): 0%; inhibition at 10 µM ([14]; SNB-19 (CNS Cancer), NCI one dose 10 µM): 0%; inhibition at 10 µM ([15]; NCI-H522 (Non-Small Cell Lung Cancer), NCI one dose 10 µM): 0%; inhibition at 10 µM ([16]; SF-539 (CNS Cancer), NCI one dose 10 µM): 2.1%; inhibition at 10 µM ([17]; SF-268 (CNS Cancer), NCI one dose 10 µM): 0%; inhibition at 10 µM ([18]; HL-60(TB) (Leukemia), NCI one dose 10 µM): 0%; inhibition at 10 µM ([19]; MALME-3M (Melanoma), NCI one dose 10 µM): 3.93% |
| COc1ccc(-c2nc3cc(-c4nnc(SCC(=O)Nc5ccc(C(=O)/C=C/c6cc(OC)c(OC)c(OC)c6)cc5)o4)ccc3[nH]2)cc1 [Compound 7o, 2-{5-[2-(4-Methoxyphenyl)-1 H-benzo[d]imidazol-5-yl]-1,3,4-oxadiazol-2-ylthio}-N-{4-[(E)-3-(3,4,5-trimethoxyphenyl)acryloyl]phenyl}acetamide] | 0 | 0 | 0 | 0 | 0 | 0 | 0.99 | 0 | 1.75 | 2.18 | 0 | 0 | 0 | 0 | 0 | 2.1 | 0 | 0 | 3.93 | inhibition at 10 µM ([20]; M14, Melanoma, NCI one dose): 0% |
